From patent US9107926B2, “Mutant selectivity and combinations of a phosphoinositide 3-kinase inhibitor compound and chemotherapeutic agents for the treatment of cancer” (Genentech, Inc., priority 2012, dated 2015)

Experiments:
[1] = tested on: SW48 PIK3CA E545K knock-in mutant subclone; assay: four day CellTiter-Glo viability assay, SW48 isogenic cell line set; settings: Homo sapiens, SW48, 96 h, read-out: Viability EC50
Description: SW48 parental cells and knock-in mutant subclones harboring common PIK3CA hotspot mutations E545K or H1047R were obtained from Horizon Discovery.

[2] = tested on: MX-1; assay: CellTiter-Glo cell proliferation assay; assay type: cell-based; settings: Homo sapiens, MX1, Breast, PTEN
Protocol: (§1) Cell Culture Medium: RPMI or DMEM high glucose, 10% Fetal Bovine Serum, 2 mM L-Glutamine, P/S. Incubate O/N (overnight) at 37° C., 5% CO2.
(§2) Drug Addition to Cells, Cell Plate (1:10 dilution): Add 6 μl of media+compound directly to cells (54 μl of media on the cells already). Incubate 3 days at 37° C., 5% CO2 in an incubator that will not be opened often.
(§3) Day 5—Develop Plates, Thaw Cell Titer Glo Buffer at room temperature: Remove Cell Plates from 37° C. and equilibrate to room temperature for about 30 minutes. Add Cell Titer-Glo® Buffer to Cell Titer-Glo® Substrate (bottle to bottle). Add 30 μl Cell Titer-Glo® Reagent (Promega cat.#G7572) to each well of cells. Place on plate shaker for about 30 minutes. Read luminescence on Analyst HT Plate Reader (half second per well).

[3] = tested on: KPL4; assay: CellTiter-Glo cell proliferation assay; assay type: cell-based; settings: Breast, Kinase-HET.1047H > R, HET.350D > N
Protocol: as §1, §2, §3

[4] = tested on: EFM-19; assay: CellTiter-Glo cell proliferation assay; assay type: cell-based; settings: Homo sapiens, Breast, Kinase-HOM.1047H > L
Protocol: as §1, §2, §3

[5] = tested on: H2030; assay: CellTiter-Glo cell proliferation assay; assay type: cell-based; settings: Homo sapiens, NCI-H2030, Lung(NSCLC), K-RAS
[6] = tested on: MCF-7 breast tumor xenografts; assay: In vivo mouse tumor xenograft efficacy; design: species or system mice
Protocol: Fulvestrant was dosed subcutaneously with 5 mg of drug once a week (qw) for 3 weeks.
Paclitaxel was dosed intravenously every 4 days for 5 cycles with 7.5 mg/kg of drug.
Xenografts were initiated with cancer cells. […] Volume was calculated using the formula: […]

[7] = tested on: MDST8; assay: CellTiter-Glo cell proliferation assay; assay type: cell-based; settings: Colon, PTEN/B-Raf
[8] = tested on: H441; assay: CellTiter-Glo cell proliferation assay; assay type: cell-based; settings: Homo sapiens, NCI-H441, Lung(NSCLC), K-RAS
[9] = tested on: HPAC; assay: CellTiter-Glo cell proliferation assay; assay type: cell-based; settings: Homo sapiens, Pancreatic, K-RAS
[10] = biological target: PI3K alpha H1047R mutant (Homo sapiens, UniProt P42336, H1047R); settings: relative to PI3K alpha
Protocol: After an incubation time of 30 minutes at room temperature, the reactions were stopped by the addition of GRP-1 and PIP3-TAMRA probe (Echelon-Inc., Salt Lake City, Utah.) 100 nM and 5 nM final concentrations respectively. Read with standard cut-off filters for the rhodamine fluorophore (λex=530 nm; λem=590 nm) in 384-well black low volume Proxiplates® (PerkinElmer, Wellesley, Mass.) Fluorescence polarization values were plotted as a function of the protein concentration. EC50 values were obtained by fitting the data to a four-parameter equation using KaleidaGraph® software (Synergy software, Reading, Pa.). This experiment also establishes the appropriate protein concentration to use in subsequent competition experiments with inhibitors.
After an incubation time of 30 minutes at room temperature, the reactions were stopped by the addition of GRP-1 and PIP3-TAMRA probe (Echelon-Inc., Salt Lake City, Utah.) 100 nM and 5 nM final concentrations respectively.
The compound was serially diluted in 100% DMSO. The kinase reaction was incubated for 1 h at room temperature, and the reaction was terminated by the addition of PBS. IC50 values were subsequently determined using sigmoidal dose-response curve fit (variable slope).

[11] = tested on: HCC-1428; assay: CellTiter-Glo cell proliferation assay; assay type: cell-based; settings: Homo sapiens, HCC1428, Breast, WT
[12] = tested on: H1299; assay: CellTiter-Glo cell proliferation assay; assay type: cell-based; settings: Homo sapiens, NCI-H1299, Lung(NSCLC), N-RAS
[13] = tested on: BT549; assay: CellTiter-Glo cell proliferation assay; assay type: cell-based; settings: Homo sapiens, BT-549, Breast, PTEN
[14] = tested on: H650; assay: CellTiter-Glo cell proliferation assay; assay type: cell-based; settings: Homo sapiens, NCI-H650, Lung(NSCLC), K-RAS
[15] = tested on: H82; assay: CellTiter-Glo cell proliferation assay; assay type: cell-based; settings: Homo sapiens, NCI-H82, Lung(SC), PTEN
[16] = tested on: 888-MEL; assay: CellTiter-Glo cell proliferation assay; assay type: cell-based; settings: Homo sapiens, Melanoma, B-Raf
[17] = tested on: HOP92; assay: CellTiter-Glo cell proliferation assay; assay type: cell-based; settings: Homo sapiens, HOP-92, Lung(NSCLC), WT
[18] = tested on: MDA-MB-436; assay: CellTiter-Glo cell proliferation assay; assay type: cell-based; settings: Homo sapiens, Breast, PTEN
[19] = tested on: CAL-148; assay: CellTiter-Glo cell proliferation assay; assay type: cell-based; settings: Homo sapiens, Breast, Kinase(HET.1047H > R)/-PTEN
Protocol: as §1, §2, §3

[20] = tested on: KNS-62; assay: CellTiter-Glo cell proliferation assay; assay type: cell-based; settings: Homo sapiens, Lung(NSCLC), K-RAS
[21] = tested on: Endocrine-resistant MCF7-ARO cells; assay: 4 day CellTiter-Glo assay in endocrine resistant cells; assay type: cell-based, human; settings: obtained by letrozole dose escalation over about 4 months
[22] = tested on: Cal 85-1; assay: CellTiter-Glo cell proliferation assay; assay type: cell-based; settings: Homo sapiens, Breast, WT
[23] = tested on: A427; assay: CellTiter-Glo cell proliferation assay; assay type: cell-based; settings: Homo sapiens, A-427, Lung(NSCLC), K-RAS
[24] = tested on: H661; assay: CellTiter-Glo cell proliferation assay; assay type: cell-based; settings: Homo sapiens, NCI-H661, Lung(NSCLC), WT
[25] = tested on: MDA-MB-468; assay: CellTiter-Glo cell proliferation assay; assay type: cell-based; settings: Homo sapiens, Breast, PTEN
[26] = tested on: H292; assay: CellTiter-Glo cell proliferation assay; assay type: cell-based; settings: Homo sapiens, NCI-H292, Lung(NSCLC), K-RAS
[27] = tested on: CAMA-1; assay: CellTiter-Glo cell proliferation assay; assay type: cell-based; settings: Homo sapiens, Breast, PTEN*
[28] = tested on: SW1573; assay: CellTiter-Glo cell proliferation assay; assay type: cell-based; settings: Homo sapiens, Lung(NSCLC), K-RAS
[29] = tested on: HOP18; assay: CellTiter-Glo cell proliferation assay; assay type: cell-based; settings: Homo sapiens, HOP-18, Lung(NSCLC), K-RAS
[30] = tested on: DLD-1; assay: CellTiter-Glo cell proliferation assay; assay type: cell-based; settings: Homo sapiens, Colon, KRAS/HET.545E > K
[31] = tested on: H520; assay: CellTiter-Glo cell proliferation assay; assay type: cell-based; settings: Homo sapiens, NCI-H520, Lung(NSCLC), PTEN
[32] = tested on: MFM223; assay: CellTiter-Glo cell proliferation assay; assay type: cell-based; settings: Homo sapiens, MFM-223, Breast, Kinase-HET.1047H > R, HET.350D > N
Protocol: as §1, §2, §3

[33] = tested on: EFO21; assay: CellTiter-Glo cell proliferation assay; assay type: cell-based; settings: Homo sapiens, EFO-21, Ovarian, PTEN
[34] = tested on: INK-134; assay: CellTiter-Glo cell proliferation assay; assay type: cell-based; settings: Glioma, Helical-HET.545E > D, HET.1043M > I
[35] = tested on: LN-229; assay: CellTiter-Glo cell proliferation assay; assay type: cell-based; settings: Homo sapiens, Glioma, Helical-HET.545E > K
[36] = tested on: HDQ-P1; assay: CellTiter-Glo cell proliferation assay; assay type: cell-based; settings: Homo sapiens, Breast, WT
Protocol: as §1, §2, §3

[37] = tested on: CAL51; assay: CellTiter-Glo cell proliferation assay; assay type: cell-based; settings: Homo sapiens, CAL-51, Breast, PTEN/HET.542E > K
Protocol: as §1, §2, §3

[38] = tested on: HOP62; assay: CellTiter-Glo cell proliferation assay; assay type: cell-based; settings: Homo sapiens, HOP-62, Lung(NSCLC), K-RAS

Chain of PI3K alpha H1047R mutant (P42336 whole entry H1047R): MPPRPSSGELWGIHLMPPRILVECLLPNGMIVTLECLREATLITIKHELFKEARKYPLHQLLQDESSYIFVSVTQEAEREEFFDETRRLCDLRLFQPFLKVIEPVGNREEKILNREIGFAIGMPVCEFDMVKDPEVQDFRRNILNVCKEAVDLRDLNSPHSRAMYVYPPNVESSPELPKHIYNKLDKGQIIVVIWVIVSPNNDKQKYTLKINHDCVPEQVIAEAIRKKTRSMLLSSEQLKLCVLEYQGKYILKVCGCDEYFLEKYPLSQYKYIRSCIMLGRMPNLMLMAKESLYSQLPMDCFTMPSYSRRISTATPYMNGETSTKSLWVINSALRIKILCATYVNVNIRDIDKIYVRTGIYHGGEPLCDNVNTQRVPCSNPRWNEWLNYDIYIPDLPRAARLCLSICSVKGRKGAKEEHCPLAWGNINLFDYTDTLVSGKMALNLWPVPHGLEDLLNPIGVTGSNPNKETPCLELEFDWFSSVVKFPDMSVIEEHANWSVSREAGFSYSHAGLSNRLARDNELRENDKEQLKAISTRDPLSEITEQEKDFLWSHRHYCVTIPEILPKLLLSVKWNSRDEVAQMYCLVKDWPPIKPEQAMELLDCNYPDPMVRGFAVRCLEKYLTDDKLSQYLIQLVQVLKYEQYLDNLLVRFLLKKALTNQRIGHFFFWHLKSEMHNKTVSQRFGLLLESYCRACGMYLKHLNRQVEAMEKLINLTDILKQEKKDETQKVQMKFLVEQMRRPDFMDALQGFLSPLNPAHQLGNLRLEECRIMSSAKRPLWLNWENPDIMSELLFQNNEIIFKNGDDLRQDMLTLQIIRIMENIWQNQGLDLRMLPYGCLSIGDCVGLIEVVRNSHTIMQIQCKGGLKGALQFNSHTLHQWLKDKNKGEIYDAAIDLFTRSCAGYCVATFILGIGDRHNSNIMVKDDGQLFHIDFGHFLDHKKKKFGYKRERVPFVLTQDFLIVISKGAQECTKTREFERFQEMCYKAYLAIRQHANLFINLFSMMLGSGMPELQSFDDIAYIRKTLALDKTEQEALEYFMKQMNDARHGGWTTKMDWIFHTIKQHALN
Chain of PI3K alpha H1047R mutant (P27986 whole entry partner): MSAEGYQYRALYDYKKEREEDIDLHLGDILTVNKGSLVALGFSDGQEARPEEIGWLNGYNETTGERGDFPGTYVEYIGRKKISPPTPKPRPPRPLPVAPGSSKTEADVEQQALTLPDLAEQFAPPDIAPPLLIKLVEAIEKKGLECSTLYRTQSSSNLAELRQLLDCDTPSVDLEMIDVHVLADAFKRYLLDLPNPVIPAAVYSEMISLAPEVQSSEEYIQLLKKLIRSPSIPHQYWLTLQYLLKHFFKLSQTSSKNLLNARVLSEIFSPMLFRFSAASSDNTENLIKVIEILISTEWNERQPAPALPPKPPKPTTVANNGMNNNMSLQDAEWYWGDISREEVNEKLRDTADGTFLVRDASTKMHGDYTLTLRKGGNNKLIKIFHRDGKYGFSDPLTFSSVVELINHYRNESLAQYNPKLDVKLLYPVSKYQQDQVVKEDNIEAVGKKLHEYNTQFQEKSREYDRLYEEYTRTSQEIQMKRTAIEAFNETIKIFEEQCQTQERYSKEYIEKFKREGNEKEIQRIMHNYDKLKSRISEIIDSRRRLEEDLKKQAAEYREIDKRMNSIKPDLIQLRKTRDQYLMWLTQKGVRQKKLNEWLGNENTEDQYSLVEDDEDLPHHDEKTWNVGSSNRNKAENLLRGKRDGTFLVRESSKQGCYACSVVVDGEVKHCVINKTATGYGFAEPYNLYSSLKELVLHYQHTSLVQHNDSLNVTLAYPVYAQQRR

**Q.** With Cc1nc(-c2cn3c(n2)-c2ccc(-c4cnn(C(C)(C)C(N)=O)c4)cc2OCC3)n(C(C)C)n1 [GDC-0032, 2-(4-(2-(1-isopropyl-3-methyl-1H-1,2,4-triazol-5-yl)-5,6-dihydrobenzo[f]imidazo[1,2-d][1,4]oxazepin-9-yl)-1H-pyrazol-1-yl)-2-methylpropanamide] as the compound, how does the EC50 [1] read?
**A.** 5 nM

**Q.** What about the EC50 [2] of the same compound?
**A.** 892 nM

**Q.** What about the EC50 [3] of the same compound?
**A.** 16 nM

**Q.** What about the EC50 [4] of the same compound?
**A.** 13 nM

**Q.** And the EC50 [5]?
**A.** 2310 nM

**Q.** What about the tumor volume change ([6]; PO daily (QD), 21 days, nude mice) of the same compound?
**A.** dose-dependent decrease in tumor volume

**Q.** What about the tumor response ([6]; all doses of GDC-0032 tested, versus vehicle) of the same compound?
**A.** Increased tumor regressions

**Q.** And the EC50 [7]?
**A.** 4010 nM

**Q.** And the EC50 [8]?
**A.** 10000 nM

**Q.** And the EC50 [9]?
**A.** 645 nM

**Q.** And the “PI3K alpha H1047R mutant” value [10]?
**A.** 0.4x

**Q.** And the EC50 [11]?
**A.** 10000 nM

**Q.** And the EC50 [12]?
**A.** 1720 nM

**Q.** And the EC50 [13]?
**A.** 1200 nM

**Q.** And the EC50 [14]?
**A.** 10000 nM

**Q.** And the EC50 [15]?
**A.** 10000 nM

**Q.** What about the EC50 [16] of the same compound?
**A.** 10000 nM

**Q.** And the EC50 [17]?
**A.** 1690 nM

**Q.** What about the EC50 [18] of the same compound?
**A.** 4690 nM

**Q.** And the EC50 [19]?
**A.** 375 nM

**Q.** What about the EC50 [20] of the same compound?
**A.** 3560 nM

**Q.** What about the “sensitivity of endocrine-resistant cells” value [21] of the same compound?
**A.** sensitive to GDC-0032

**Q.** What about the EC50 [22] of the same compound?
**A.** 520 nM

**Q.** And the EC50 [23]?
**A.** 10000 nM

**Q.** What about the EC50 [24] of the same compound?
**A.** 497 nM

**Q.** What about the EC50 [25] of the same compound?
**A.** 7880 nM

**Q.** And the EC50 [26]?
**A.** 274 nM

**Q.** What about the EC50 [27] of the same compound?
**A.** 5620 nM

**Q.** And the EC50 [28]?
**A.** 285 nM

**Q.** And the EC50 [29]?
**A.** 77 nM

**Q.** And the EC50 [30]?
**A.** 2500 nM

**Q.** And the EC50 [31]?
**A.** 264 nM

**Q.** And the EC50 [32]?
**A.** 211 nM

**Q.** And the EC50 [33]?
**A.** 10000 nM

**Q.** What about the EC50 [34] of the same compound?
**A.** 976 nM

**Q.** And the EC50 [35]?
**A.** 3410 nM

**Q.** What about the EC50 [36] of the same compound?
**A.** 258 nM

**Q.** What about the EC50 [37] of the same compound?
**A.** 326 nM

**Q.** And the EC50 [38]?
**A.** 3090 nM
